Data published in ChEMBL document CHEMBL5465560, “Selectivity Literature for EUbOPEN Chemogenomic Library” (2024).

Experiments:
[1] = test system: Tyrosine-protein kinase ABL1 (Homo sapiens), P00519 [Q252H]; experiment: Selectivity interaction (KinomeScan (DiscoverX)) EUB0000229b ABL1; conditions: at 1 µM
[2] = biological target: Tyrosine-protein kinase Fer (Homo sapiens) (UniProt P16591); experiment: Selectivity interaction (KinomeScan (DiscoverX)) EUB0000045b FER
[3] = test system: Receptor-type tyrosine-protein kinase FLT3 (Homo sapiens), P36888 [UNDEFINED MUTATION]; experiment: Selectivity interaction (KinomeScan (DiscoverX)) EUB0000695a FLT3; conditions: at 100 nM
[4] = biological target: T1, Serine/threonine-protein kinase LATS1 (Homo sapiens) (UniProt O95835); experiment: Selectivity interaction (KinomeScan (DiscoverX)) EUB0001079a LATS1; conditions: at 1 µM
T1 sequence (whole entry): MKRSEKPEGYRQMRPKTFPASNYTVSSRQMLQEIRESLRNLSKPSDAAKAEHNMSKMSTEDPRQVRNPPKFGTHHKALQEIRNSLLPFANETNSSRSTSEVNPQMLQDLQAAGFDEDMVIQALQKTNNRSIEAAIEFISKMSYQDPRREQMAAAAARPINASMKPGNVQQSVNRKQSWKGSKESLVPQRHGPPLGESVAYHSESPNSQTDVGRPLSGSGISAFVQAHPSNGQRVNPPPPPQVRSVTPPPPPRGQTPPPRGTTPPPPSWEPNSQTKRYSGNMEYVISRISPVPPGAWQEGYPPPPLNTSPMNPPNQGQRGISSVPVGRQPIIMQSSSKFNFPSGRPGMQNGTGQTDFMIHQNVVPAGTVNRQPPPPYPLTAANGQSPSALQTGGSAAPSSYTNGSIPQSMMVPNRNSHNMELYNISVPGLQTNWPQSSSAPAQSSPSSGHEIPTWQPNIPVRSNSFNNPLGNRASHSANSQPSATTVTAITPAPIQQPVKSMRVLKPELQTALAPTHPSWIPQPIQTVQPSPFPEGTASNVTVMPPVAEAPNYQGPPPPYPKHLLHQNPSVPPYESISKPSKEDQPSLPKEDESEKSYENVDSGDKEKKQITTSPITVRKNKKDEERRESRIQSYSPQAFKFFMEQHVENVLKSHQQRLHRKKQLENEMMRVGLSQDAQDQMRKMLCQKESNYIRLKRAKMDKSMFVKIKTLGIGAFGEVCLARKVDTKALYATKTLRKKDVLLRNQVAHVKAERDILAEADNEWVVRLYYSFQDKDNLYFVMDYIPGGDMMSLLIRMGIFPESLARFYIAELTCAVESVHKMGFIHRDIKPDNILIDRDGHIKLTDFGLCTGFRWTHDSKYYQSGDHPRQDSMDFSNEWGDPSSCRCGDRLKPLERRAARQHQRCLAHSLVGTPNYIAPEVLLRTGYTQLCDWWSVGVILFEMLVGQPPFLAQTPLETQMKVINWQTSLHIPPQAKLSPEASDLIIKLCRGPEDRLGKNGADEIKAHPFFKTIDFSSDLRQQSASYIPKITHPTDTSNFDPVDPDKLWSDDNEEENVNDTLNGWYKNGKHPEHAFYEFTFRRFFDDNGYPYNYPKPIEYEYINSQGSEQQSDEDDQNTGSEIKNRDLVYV

[5] = biological target: Calcium/calmodulin-dependent protein kinase type II subunit beta (Homo sapiens) (UniProt Q13554); experiment: Selectivity interaction (ProQinase) EUB0000171b CAMK2B
[6] = biological target: T2, Dual specificity mitogen-activated protein kinase kinase 3 (Homo sapiens) (UniProt P46734); experiment: Selectivity interaction (KinomeScan (DiscoverX)) EUB0000618a MAP2K3; conditions: at 10 µM
T2 sequence (whole entry): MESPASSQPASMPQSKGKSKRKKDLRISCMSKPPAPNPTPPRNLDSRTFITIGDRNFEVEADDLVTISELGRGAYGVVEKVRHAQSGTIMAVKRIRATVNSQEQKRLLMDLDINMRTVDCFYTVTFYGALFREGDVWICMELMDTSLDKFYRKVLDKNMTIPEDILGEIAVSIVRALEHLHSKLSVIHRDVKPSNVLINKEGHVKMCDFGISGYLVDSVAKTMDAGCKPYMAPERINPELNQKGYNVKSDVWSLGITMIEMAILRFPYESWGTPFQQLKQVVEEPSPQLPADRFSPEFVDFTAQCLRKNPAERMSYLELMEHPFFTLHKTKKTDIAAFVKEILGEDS

[7] = biological target: Ribosomal protein S6 kinase alpha-2 (Homo sapiens) (UniProt Q15349); experiment: Selectivity interaction (ActivX KiNativ screen (kinase selectivity in THP-1 cell lysates)) EUB0000639a RPS6KA2; format: subcellular; conditions: lysate, at 0.04 µM
[8] = biological target: Serine/threonine-protein kinase 10 (Homo sapiens) (UniProt O94804); experiment: Selectivity interaction (ActivX KiNativ screen (kinase selectivity in THP-1 cell lysates)) EUB0000639a STK10; format: subcellular; conditions: lysate, at 0.01 µM
[9] = test system: Tyrosine-protein kinase ABL1 (Homo sapiens), P00519 [Q252H]; conditions: at 10 µM

Chain of Calcium/calmodulin-dependent protein kinase type II subunit beta (Homo sapiens) (Q13554 whole entry): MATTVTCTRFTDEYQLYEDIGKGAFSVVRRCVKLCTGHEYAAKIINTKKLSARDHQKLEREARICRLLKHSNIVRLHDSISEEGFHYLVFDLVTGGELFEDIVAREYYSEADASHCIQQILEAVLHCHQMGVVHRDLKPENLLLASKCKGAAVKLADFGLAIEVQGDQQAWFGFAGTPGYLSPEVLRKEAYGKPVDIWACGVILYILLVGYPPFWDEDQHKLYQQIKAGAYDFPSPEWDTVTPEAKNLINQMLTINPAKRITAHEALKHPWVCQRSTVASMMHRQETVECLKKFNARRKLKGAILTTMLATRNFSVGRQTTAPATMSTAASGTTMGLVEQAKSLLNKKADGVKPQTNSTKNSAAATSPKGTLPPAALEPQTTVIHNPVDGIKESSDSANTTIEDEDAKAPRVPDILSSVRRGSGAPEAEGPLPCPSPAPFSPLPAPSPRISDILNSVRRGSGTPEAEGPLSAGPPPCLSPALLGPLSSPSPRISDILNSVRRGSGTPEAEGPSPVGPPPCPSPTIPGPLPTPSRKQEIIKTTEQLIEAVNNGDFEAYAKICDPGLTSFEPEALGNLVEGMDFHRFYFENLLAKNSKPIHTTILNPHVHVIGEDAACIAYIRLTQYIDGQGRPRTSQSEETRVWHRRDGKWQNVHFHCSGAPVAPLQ
Chain of Tyrosine-protein kinase Fer (Homo sapiens) (P16591 whole entry, looked up): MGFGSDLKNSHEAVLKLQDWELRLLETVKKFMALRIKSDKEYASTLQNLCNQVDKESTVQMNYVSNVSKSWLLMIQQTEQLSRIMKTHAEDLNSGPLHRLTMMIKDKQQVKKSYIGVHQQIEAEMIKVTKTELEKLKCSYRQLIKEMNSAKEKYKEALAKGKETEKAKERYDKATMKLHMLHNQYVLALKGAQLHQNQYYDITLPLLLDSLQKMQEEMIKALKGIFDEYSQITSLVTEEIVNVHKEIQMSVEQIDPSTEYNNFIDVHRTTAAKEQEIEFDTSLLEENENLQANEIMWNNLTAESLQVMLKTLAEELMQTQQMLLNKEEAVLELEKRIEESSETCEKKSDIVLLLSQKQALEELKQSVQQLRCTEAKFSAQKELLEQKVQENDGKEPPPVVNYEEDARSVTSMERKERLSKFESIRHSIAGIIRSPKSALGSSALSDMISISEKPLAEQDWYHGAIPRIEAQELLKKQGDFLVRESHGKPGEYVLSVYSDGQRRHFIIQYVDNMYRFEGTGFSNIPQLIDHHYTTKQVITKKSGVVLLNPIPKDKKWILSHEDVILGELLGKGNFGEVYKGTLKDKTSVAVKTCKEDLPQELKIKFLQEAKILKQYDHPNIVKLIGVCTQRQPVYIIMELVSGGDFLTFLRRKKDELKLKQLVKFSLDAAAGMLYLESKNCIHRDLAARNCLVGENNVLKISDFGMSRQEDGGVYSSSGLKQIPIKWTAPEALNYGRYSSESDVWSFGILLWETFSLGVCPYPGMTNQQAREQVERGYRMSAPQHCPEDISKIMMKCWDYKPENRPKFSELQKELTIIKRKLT
Chain of Ribosomal protein S6 kinase alpha-2 (Homo sapiens) (Q15349 whole entry): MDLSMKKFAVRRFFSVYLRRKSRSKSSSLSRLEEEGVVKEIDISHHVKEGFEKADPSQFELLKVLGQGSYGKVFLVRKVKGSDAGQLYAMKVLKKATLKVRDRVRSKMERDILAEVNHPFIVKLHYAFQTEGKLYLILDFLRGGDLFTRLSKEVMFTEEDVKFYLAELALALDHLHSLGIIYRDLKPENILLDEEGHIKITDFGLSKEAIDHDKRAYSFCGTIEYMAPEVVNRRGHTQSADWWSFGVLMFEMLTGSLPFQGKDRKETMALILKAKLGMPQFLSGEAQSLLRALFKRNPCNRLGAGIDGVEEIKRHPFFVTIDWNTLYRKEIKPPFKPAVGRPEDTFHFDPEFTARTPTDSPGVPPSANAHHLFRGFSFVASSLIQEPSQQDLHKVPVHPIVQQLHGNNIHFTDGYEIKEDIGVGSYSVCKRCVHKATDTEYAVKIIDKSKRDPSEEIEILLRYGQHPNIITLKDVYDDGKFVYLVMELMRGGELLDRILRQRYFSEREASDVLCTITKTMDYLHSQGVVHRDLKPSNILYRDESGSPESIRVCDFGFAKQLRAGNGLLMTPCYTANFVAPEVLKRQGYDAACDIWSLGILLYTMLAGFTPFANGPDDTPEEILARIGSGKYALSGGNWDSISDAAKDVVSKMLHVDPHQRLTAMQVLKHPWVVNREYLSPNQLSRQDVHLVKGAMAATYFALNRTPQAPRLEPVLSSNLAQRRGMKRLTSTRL
Chain of Serine/threonine-protein kinase 10 (Homo sapiens) (O94804 whole entry, looked up): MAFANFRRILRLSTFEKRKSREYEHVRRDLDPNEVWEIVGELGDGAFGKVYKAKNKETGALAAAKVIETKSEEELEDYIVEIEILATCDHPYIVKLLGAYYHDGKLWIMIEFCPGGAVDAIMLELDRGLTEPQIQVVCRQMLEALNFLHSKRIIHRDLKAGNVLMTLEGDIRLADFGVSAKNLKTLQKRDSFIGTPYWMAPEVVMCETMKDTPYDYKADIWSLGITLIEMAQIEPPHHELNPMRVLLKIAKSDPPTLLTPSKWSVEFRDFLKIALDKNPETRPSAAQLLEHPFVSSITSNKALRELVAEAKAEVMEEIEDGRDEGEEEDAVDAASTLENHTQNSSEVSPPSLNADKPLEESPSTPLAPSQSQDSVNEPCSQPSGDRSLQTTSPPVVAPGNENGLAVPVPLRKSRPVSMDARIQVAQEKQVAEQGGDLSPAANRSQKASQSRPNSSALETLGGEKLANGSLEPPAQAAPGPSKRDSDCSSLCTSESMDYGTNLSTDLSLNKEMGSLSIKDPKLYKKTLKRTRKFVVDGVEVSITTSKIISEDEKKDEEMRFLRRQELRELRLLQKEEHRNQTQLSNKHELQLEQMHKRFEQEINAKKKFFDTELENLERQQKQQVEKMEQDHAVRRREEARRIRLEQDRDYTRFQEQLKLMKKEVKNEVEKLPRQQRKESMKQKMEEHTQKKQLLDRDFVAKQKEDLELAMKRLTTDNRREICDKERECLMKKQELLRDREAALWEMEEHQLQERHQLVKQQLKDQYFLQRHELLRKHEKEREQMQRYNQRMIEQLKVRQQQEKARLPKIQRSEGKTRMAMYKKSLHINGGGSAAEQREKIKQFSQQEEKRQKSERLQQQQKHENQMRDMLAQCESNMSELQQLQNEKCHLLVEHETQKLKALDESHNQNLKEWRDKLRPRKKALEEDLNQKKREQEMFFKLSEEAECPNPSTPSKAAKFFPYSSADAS
Chain of Receptor-type tyrosine-protein kinase FLT3 (Homo sapiens), P36888 [UNDEFINED MUTATION] (P36888 whole entry, looked up, change not shown): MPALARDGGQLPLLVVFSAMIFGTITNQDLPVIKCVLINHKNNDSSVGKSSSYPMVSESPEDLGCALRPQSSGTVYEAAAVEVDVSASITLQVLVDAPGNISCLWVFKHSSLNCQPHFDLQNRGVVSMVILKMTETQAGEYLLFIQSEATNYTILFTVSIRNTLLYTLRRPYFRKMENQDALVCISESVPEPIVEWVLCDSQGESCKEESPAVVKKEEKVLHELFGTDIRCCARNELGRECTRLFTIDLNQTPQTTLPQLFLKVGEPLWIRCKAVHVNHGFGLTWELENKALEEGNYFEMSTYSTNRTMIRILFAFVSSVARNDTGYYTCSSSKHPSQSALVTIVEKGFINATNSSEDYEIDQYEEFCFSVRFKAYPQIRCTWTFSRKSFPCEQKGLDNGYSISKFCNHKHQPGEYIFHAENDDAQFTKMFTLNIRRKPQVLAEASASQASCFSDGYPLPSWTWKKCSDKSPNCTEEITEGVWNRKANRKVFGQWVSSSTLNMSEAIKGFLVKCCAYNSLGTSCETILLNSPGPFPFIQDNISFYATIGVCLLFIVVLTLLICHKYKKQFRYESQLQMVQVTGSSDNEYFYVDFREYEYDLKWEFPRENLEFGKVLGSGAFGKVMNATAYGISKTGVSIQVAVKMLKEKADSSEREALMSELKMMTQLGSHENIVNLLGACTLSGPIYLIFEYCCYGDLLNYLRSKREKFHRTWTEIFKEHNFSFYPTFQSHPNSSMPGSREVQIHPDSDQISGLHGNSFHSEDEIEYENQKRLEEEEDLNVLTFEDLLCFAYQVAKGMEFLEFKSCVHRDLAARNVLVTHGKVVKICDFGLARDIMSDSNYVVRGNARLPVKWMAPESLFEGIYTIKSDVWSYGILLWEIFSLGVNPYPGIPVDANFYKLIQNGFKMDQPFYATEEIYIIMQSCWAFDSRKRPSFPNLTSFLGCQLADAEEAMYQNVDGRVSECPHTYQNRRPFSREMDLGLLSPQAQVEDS

## COc1cc(N(C)c2ccnc3ccc(C(F)(F)F)cc23)cc(OC)c1OC
[1]
  % binding: 91%

## C=CC(=O)Nc1cc(-n2c(=O)ccc3cnc4ccc(-c5ccc(NS(C)(=O)=O)cc5)cc4c32)ccc1C
[2]; at 1 µM
  % of control: 66%
[2]; at 10 µM
  % of control: 89%

## Cc1cc(F)c(C(=O)Nc2cccc(-c3nncn3C(C)C)n2)cc1-n1cnc(C2CC2)c1
[3]
  % of control: 76%

## Nc1cnc(N2CCc3cc(S(=O)(=O)Nc4c(F)cc(Cl)cc4F)cc(N4CCCC4=O)c32)nc1 [TP-020n]
[4]
  % of control: 100%

## C=CC(=O)Nc1cccc(C(=O)Nc2ccc(Nc3cc(-c4[nH]c(SC)nc4C)ccn3)cc2)c1
[5]; at 1 µM
  % of control: 97%
[5]; at 5 µM
  % of control: 79%

## O[C@H]1CC[C@H](Nc2ncc3nc(Nc4c(F)cc(F)cc4F)n([C@H]4CCOC4)c3n2)CC1
[6]
  % of control: 43%

## CC[C@@H]1[C@H](F)C(=O)N[C@@H]1COc1nccc2cc(C(N)=O)c(OC)cc12 [ZIMLOVISERTIB]
[7]
  % of inhibition: -7.6%
[8]
  % of inhibition: 2.4%

## CCN(CC)CCCCNc1ncc2cc(-c3cc(OC)cc(OC)c3)c(NC(=O)NC(C)(C)C)nc2n1
[9]
  % of control: 100%
